Target: T1, aldosterone synthase (Homo sapiens, UniProt P19099)
T1 construct: synthesized in the adrenal cortex by aldosterone synthase; endogenous in cells; host or cells: adrenal cortex of healthy human subjects (in vivo, oral dosing)
T1 sequence (P19099 25-503): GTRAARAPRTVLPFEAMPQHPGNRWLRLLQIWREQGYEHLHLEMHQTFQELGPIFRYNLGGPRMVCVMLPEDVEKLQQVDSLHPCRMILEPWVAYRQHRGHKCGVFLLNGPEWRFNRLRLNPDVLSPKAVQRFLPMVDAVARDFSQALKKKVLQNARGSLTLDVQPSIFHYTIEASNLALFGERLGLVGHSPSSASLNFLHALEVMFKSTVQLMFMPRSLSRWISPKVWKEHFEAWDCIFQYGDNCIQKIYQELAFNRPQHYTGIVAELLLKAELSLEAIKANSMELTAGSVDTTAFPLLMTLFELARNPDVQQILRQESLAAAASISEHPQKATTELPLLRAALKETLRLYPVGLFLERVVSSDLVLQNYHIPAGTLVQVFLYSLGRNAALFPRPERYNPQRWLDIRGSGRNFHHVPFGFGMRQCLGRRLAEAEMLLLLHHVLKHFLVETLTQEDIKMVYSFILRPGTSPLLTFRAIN
Experiment: MAD study: plasma aldosterone and precursors (18-hydroxycorticosterone, corticosterone, 11-deoxycorticosterone)
Format: in vivo
Details: mean; for Plasma 11-deoxycorticosterone, Day −1 predose / Plasma 18-hydroxycorticosterone, Day −1 predose / Plasma aldosterone, Day −1 predose / Plasma corticosterone, Day −1 predose: baseline
Excerpt: For each subject, the study consisted of: • A screening period of up to 28 days; • A 5-day inpatient run-in period during which subjects adhered to a controlled, standardized diet and underwent baseline PD assessments; • A 15-day inpatient treatment period, during which subjects received (R)-compound 1 or placebo once daily for 10 days while adhering to a controlled, standardized diet, followed by PK and PD sampling over an additional 5 days; and • A follow-up visit 3 days (1 day) after discharge from the clinical unit. • A cortisol stimulation test (Cohorts 1 and 2 only) and standing aldosterone assessment (all cohorts) were performed on Days 1 and 10. Serial blood samples for PK and PD were obtained prior to and at specified time points over 24 hours after dosing on Day 1 as well as prior to and at specified time points over 120 hours after dosing on Day 10. In addition, blood samples for PK were collected prior to dosing on Days 8 and 9. Urine for PK and PD measurements was collected over 24 hours starting just prior to dosing on Day 1 as well as over 120 hours starting just prior to dosing on Day 10. […]

CCC(=O)N[C@@H]1CCCc2c(-c3ccc4c(c3)CCC(=O)N4C)cncc21 [(R)-Compound 1, (R)—N-(4-(1-methyl-2-oxo-1,2,3,4-tetrahydroquinolin-6-yl)-5,6,7,8-tetrahydroisoquinolin-8-yl)propionamide]
Plasma 11-deoxycorticosterone, Day −1 predose (0.5 mg QD, normal salt diet): 52.625 pg/mL
Plasma 18-hydroxycorticosterone, Day −1 predose (0.5 mg QD, normal salt diet): 955.5 pg/mL
Plasma aldosterone, Day −1 predose (0.5 mg QD, normal salt diet): 131.588 pg/mL
Plasma corticosterone, Day −1 predose (0.5 mg QD, normal salt diet): 4302.5 pg/mL
Plasma 11-deoxycorticosterone, Day 1, 12 hours postdose (0.5 mg QD, normal salt diet): 35.900 pg/mL
Plasma 11-deoxycorticosterone, Day 1, predose (0.5 mg QD, normal salt diet): 50.938 pg/mL
Plasma 11-deoxycorticosterone, Day 2, predose (0.5 mg QD, normal salt diet): 72.950 pg/mL
Plasma 11-deoxycorticosterone, Day 10, 12 hours postdose (0.5 mg QD, normal salt diet): 70.813 pg/mL
Plasma 11-deoxycorticosterone, Day 10, 24 hours postdose (0.5 mg QD, normal salt diet): 115.663 pg/mL
Plasma 11-deoxycorticosterone, Day 10, predose (0.5 mg QD, normal salt diet): 112.375 pg/mL
Plasma 11-deoxycorticosterone, Percent change from Day −1 to Day 10, predose (0.5 mg QD, normal salt diet): 161.115%
Plasma 18-hydroxycorticosterone, Day 1, 12 hours postdose (0.5 mg QD, normal salt diet): 310.1 pg/mL
Plasma 18-hydroxycorticosterone, Day 1, predose (0.5 mg QD, normal salt diet): 943.1 pg/mL
Plasma 18-hydroxycorticosterone, Day 2, predose (0.5 mg QD, normal salt diet): 819.6 pg/mL
Plasma 18-hydroxycorticosterone, Day 10, 12 hours postdose (0.5 mg QD, normal salt diet): 326.5 pg/mL
Plasma 18-hydroxycorticosterone, Day 10, 24 hours postdose (0.5 mg QD, normal salt diet): 1016.4 pg/mL
Plasma 18-hydroxycorticosterone, Day 10, predose (0.5 mg QD, normal salt diet): 983.1 pg/mL
Plasma 18-hydroxycorticosterone, Percent change from Day −1 to Day 10 (0.5 mg QD, normal salt diet): 5.2%
Plasma aldosterone, Day 1, 12 hours postdose (0.5 mg QD, normal salt diet): 56.250 pg/mL
Plasma aldosterone, Day 1, predose (0.5 mg QD, normal salt diet): 133.013 pg/mL
Plasma aldosterone, Day 2, predose (0.5 mg QD, normal salt diet): 80.100 pg/mL
Plasma aldosterone, Day 10, 12 hours postdose (0.5 mg QD, normal salt diet): 83.625 pg/mL
Plasma aldosterone, Day 10, 24 hours postdose (0.5 mg QD, normal salt diet): 143.338 pg/mL
Plasma aldosterone, Day 10, predose (0.5 mg QD, normal salt diet): 152.875 pg/mL
Plasma aldosterone, Percent change from Day −1 to Day 10, predose (0.5 mg QD, normal salt diet): 28.841%
Plasma corticosterone, Day 1, 12 hours postdose (0.5 mg QD, normal salt diet): 695.6 pg/mL
Plasma corticosterone, Day 1, predose (0.5 mg QD, normal salt diet): 3170.0 pg/mL
Plasma corticosterone, Day 2, predose (0.5 mg QD, normal salt diet): 4490.0 pg/mL
Plasma corticosterone, Day 10, 12 hours postdose (0.5 mg QD, normal salt diet): 1211.4 pg/mL
Plasma corticosterone, Day 10, 24 hours postdose (0.5 mg QD, normal salt diet): 5923.8 pg/mL
Plasma corticosterone, Day 10, predose (0.5 mg QD, normal salt diet): 4187.5 pg/mL
Plasma corticosterone, Percent change from Day −1 to Day 10, predose (0.5 mg QD, normal salt diet): 73.0%
Plasma 11-deoxycorticosterone, Day −1 predose (1.5 mg QD, normal salt diet): 43.489 pg/mL
Plasma 18-hydroxycorticosterone, Day −1 predose (1.5 mg QD, normal salt diet): 1027.4 pg/mL
Plasma aldosterone, Day −1 predose (1.5 mg QD, normal salt diet): 143.100 pg/mL
Plasma corticosterone, Day −1 predose (1.5 mg QD, normal salt diet): 3748.3 pg/mL
Plasma 11-deoxycorticosterone, Day 1, 12 hours postdose (1.5 mg QD, normal salt diet): 19.656 pg/mL
Plasma 11-deoxycorticosterone, Day 1, predose (1.5 mg QD, normal salt diet): 44.711 pg/mL
Plasma 11-deoxycorticosterone, Day 2, predose (1.5 mg QD, normal salt diet): 53.344 pg/mL
Plasma 11-deoxycorticosterone, Day 10, 12 hours postdose (1.5 mg QD, normal salt diet): 46.733 pg/mL
Plasma 11-deoxycorticosterone, Day 10, 24 hours postdose (1.5 mg QD, normal salt diet): 84.767 pg/mL
Plasma 11-deoxycorticosterone, Day 10, predose (1.5 mg QD, normal salt diet): 73.322 pg/mL
Plasma 11-deoxycorticosterone, Percent change from Day −1 to Day 10, predose (1.5 mg QD, normal salt diet): 104.945%
Plasma 18-hydroxycorticosterone, Day 1, 12 hours postdose (1.5 mg QD, normal salt diet): 225.6 pg/mL
Plasma 18-hydroxycorticosterone, Day 1, predose (1.5 mg QD, normal salt diet): 991.7 pg/mL
Plasma 18-hydroxycorticosterone, Day 2, predose (1.5 mg QD, normal salt diet): 829.3 pg/mL
Plasma 18-hydroxycorticosterone, Day 10, 12 hours postdose (1.5 mg QD, normal salt diet): 318.4 pg/mL
Plasma 18-hydroxycorticosterone, Day 10, 24 hours postdose (1.5 mg QD, normal salt diet): 1000.1 pg/mL
Plasma 18-hydroxycorticosterone, Day 10, predose (1.5 mg QD, normal salt diet): 1047.9 pg/mL
Plasma 18-hydroxycorticosterone, Percent change from Day −1 to Day 10 (1.5 mg QD, normal salt diet): 6.1%
Plasma aldosterone, Day 1, 12 hours postdose (1.5 mg QD, normal salt diet): 27.111 pg/mL
Plasma aldosterone, Day 1, predose (1.5 mg QD, normal salt diet): 110.567 pg/mL
Plasma aldosterone, Day 2, predose (1.5 mg QD, normal salt diet): 52.933 pg/mL
Plasma aldosterone, Day 10, 12 hours postdose (1.5 mg QD, normal salt diet): 41.300 pg/mL
Plasma aldosterone, Day 10, 24 hours postdose (1.5 mg QD, normal salt diet): 92.533 pg/mL
Plasma aldosterone, Day 10, predose (1.5 mg QD, normal salt diet): 82.144 pg/mL
Plasma aldosterone, Percent change from Day −1 to Day 10, predose (1.5 mg QD, normal salt diet): −37.405%
Plasma corticosterone, Day 1, 12 hours postdose (1.5 mg QD, normal salt diet): 635.2 pg/mL
Plasma corticosterone, Day 1, predose (1.5 mg QD, normal salt diet): 3988.3 pg/mL
Plasma corticosterone, Day 2, predose (1.5 mg QD, normal salt diet): 4413.3 pg/mL
Plasma corticosterone, Day 10, 12 hours postdose (1.5 mg QD, normal salt diet): 1417.0 pg/mL
Plasma corticosterone, Day 10, 24 hours postdose (1.5 mg QD, normal salt diet): 6065.6 pg/mL
Plasma corticosterone, Day 10, predose (1.5 mg QD, normal salt diet): 5677.8 pg/mL
Plasma corticosterone, Percent change from Day −1 to Day 10, predose (1.5 mg QD, normal salt diet): 115.1%
Plasma 11-deoxycorticosterone, Day −1 predose (2.5 mg QD, low salt diet): 72.688 pg/mL
Plasma 18-hydroxycorticosterone, Day −1 predose (2.5 mg QD, low salt diet): 1269.6 pg/mL
Plasma aldosterone, Day −1 predose (2.5 mg QD, low salt diet): 272.125 pg/mL
Plasma corticosterone, Day −1 predose (2.5 mg QD, low salt diet): 6383.8 pg/mL
Plasma 11-deoxycorticosterone, Day 1, 12 hours postdose (2.5 mg QD, low salt diet): 133.300 pg/mL
Plasma 11-deoxycorticosterone, Day 1, predose (2.5 mg QD, low salt diet): 83.825 pg/mL
Plasma 11-deoxycorticosterone, Day 10, 12 hours postdose (2.5 mg QD, low salt diet): 204.250 pg/mL
Plasma 11-deoxycorticosterone, Day 10, 24 hours postdose (2.5 mg QD, low salt diet): 217.975 pg/mL
Plasma 11-deoxycorticosterone, Day 10, predose (2.5 mg QD, low salt diet): 164.725 pg/mL
Plasma 11-deoxycorticosterone, Percent change from Day −1 to Day 10, predose (2.5 mg QD, low salt diet): 412.560%
Plasma 18-hydroxycorticosterone, Day 1, 12 hours postdose (2.5 mg QD, low salt diet): 230.4 pg/mL
Plasma 18-hydroxycorticosterone, Day 1, predose (2.5 mg QD, low salt diet): 839.6 pg/mL
Plasma 18-hydroxycorticosterone, Day 10, 12 hours postdose (2.5 mg QD, low salt diet): 339.1 pg/mL
